Numbers after ± are expanded uncertainties.
Experiments:
[1] = xn = mol fraction of the nth substance listed; details: 101.3 kPa, Liquid; for viscosity: Capillary tube (Ostwald / Ubbelohde) method; for speed of sound: Sing-around technique in a fixed-path interferometer; for mass density: Vibrating tube method
[2] = excess molar enthalpy (molar enthalpy of mixing); xn = mol fraction of the nth substance listed; details: 101.3 kPa, Liquid, Flow calorimetry

OCC(F)(F)F [2,2,2-trifluoroethanol] + C1CCOCC1
viscosity ([1]; 283.15 K, x2 = 0.0508): 2.521 ± 0.015 mPa·s
viscosity ([1]; 283.15 K, x2 = 0.1011): 2.265 ± 0.014 mPa·s
viscosity ([1]; 283.15 K, x2 = 0.2025): 1.834 ± 0.012 mPa·s
viscosity ([1]; 283.15 K, x2 = 0.3024): 1.546 ± 0.01 mPa·s
viscosity ([1]; 283.15 K, x2 = 0.404): 1.348 ± 0.0089 mPa·s
viscosity ([1]; 283.15 K, x2 = 0.5027): 1.22 ± 0.0083 mPa·s
viscosity ([1]; 283.15 K, x2 = 0.6069): 1.123 ± 0.0079 mPa·s
viscosity ([1]; 283.15 K, x2 = 0.7013): 1.064 ± 0.0077 mPa·s
viscosity ([1]; 283.15 K, x2 = 0.8016): 1.026 ± 0.0076 mPa·s
viscosity ([1]; 283.15 K, x2 = 0.9064): 1.01 ± 0.0078 mPa·s
speed of sound ([1]; 283.15 K, x2 = 0.1039): 903.5 ± 1.1 m/s
speed of sound ([1]; 283.15 K, x2 = 0.2071): 942.2 ± 1.2 m/s
speed of sound ([1]; 283.15 K, x2 = 0.3067): 985.6 ± 1.2 m/s
speed of sound ([1]; 283.15 K, x2 = 0.4123): 1034 ± 1.2 m/s
speed of sound ([1]; 283.15 K, x2 = 0.5017): 1076.2 ± 1.3 m/s
speed of sound ([1]; 283.15 K, x2 = 0.6011): 1124.9 ± 1.3 m/s
speed of sound ([1]; 283.15 K, x2 = 0.7183): 1184.3 ± 1.4 m/s
speed of sound ([1]; 283.15 K, x2 = 0.8206): 1237.7 ± 1.4 m/s
speed of sound ([1]; 283.15 K, x2 = 0.8955): 1278.1 ± 1.5 m/s
mass density ([1]; 283.15 K, x2 = 0.1039): 1328.18 ± 0.22 kg/m3
mass density ([1]; 283.15 K, x2 = 0.2071): 1259.32 ± 0.25 kg/m3
mass density ([1]; 283.15 K, x2 = 0.3073): 1199.39 ± 0.28 kg/m3
mass density ([1]; 283.15 K, x2 = 0.4127): 1142.29 ± 0.31 kg/m3
mass density ([1]; 283.15 K, x2 = 0.5017): 1097.77 ± 0.34 kg/m3
mass density ([1]; 283.15 K, x2 = 0.6011): 1051.7 ± 0.36 kg/m3
mass density ([1]; 283.15 K, x2 = 0.7183): 1001.3 ± 0.39 kg/m3
mass density ([1]; 283.15 K, x2 = 0.8206): 960.36 ± 0.42 kg/m3
mass density ([1]; 283.15 K, x2 = 0.8955): 931.9 ± 0.44 kg/m3
viscosity ([1]; 298.15 K, x2 = 0.0508): 1.68 ± 0.011 mPa·s
viscosity ([1]; 298.15 K, x2 = 0.1011): 1.557 ± 0.0097 mPa·s
viscosity ([1]; 298.15 K, x2 = 0.2025): 1.33 ± 0.0085 mPa·s
viscosity ([1]; 298.15 K, x2 = 0.3024): 1.159 ± 0.0076 mPa·s
viscosity ([1]; 298.15 K, x2 = 0.404): 1.034 ± 0.007 mPa·s
viscosity ([1]; 298.15 K, x2 = 0.5027): 0.9509 ± 0.0066 mPa·s
viscosity ([1]; 298.15 K, x2 = 0.6069): 0.8855 ± 0.0064 mPa·s
viscosity ([1]; 298.15 K, x2 = 0.7013): 0.845 ± 0.0062 mPa·s
viscosity ([1]; 298.15 K, x2 = 0.8016): 0.8183 ± 0.0062 mPa·s
viscosity ([1]; 298.15 K, x2 = 0.9064): 0.8047 ± 0.0063 mPa·s
speed of sound ([1]; 298.15 K, x2 = 0.1023): 850.5 ± 1.1 m/s
speed of sound ([1]; 298.15 K, x2 = 0.2029): 886.4 ± 1.2 m/s
speed of sound ([1]; 298.15 K, x2 = 0.3203): 933.6 ± 1.2 m/s
speed of sound ([1]; 298.15 K, x2 = 0.412): 972.6 ± 1.2 m/s
speed of sound ([1]; 298.15 K, x2 = 0.5208): 1021 ± 1.3 m/s
speed of sound ([1]; 298.15 K, x2 = 0.6171): 1065.4 ± 1.3 m/s
speed of sound ([1]; 298.15 K, x2 = 0.7342): 1121 ± 1.4 m/s
speed of sound ([1]; 298.15 K, x2 = 0.7996): 1152.3 ± 1.4 m/s
speed of sound ([1]; 298.15 K, x2 = 0.8967): 1201.6 ± 1.5 m/s
mass density ([1]; 298.15 K, x2 = 0.1023): 1305.58 ± 0.22 kg/m3
mass density ([1]; 298.15 K, x2 = 0.2029): 1239.41 ± 0.24 kg/m3
mass density ([1]; 298.15 K, x2 = 0.3203): 1170.85 ± 0.28 kg/m3
mass density ([1]; 298.15 K, x2 = 0.412): 1122.5 ± 0.3 kg/m3
mass density ([1]; 298.15 K, x2 = 0.5192): 1070.38 ± 0.34 kg/m3
mass density ([1]; 298.15 K, x2 = 0.6171): 1026.55 ± 0.36 kg/m3
mass density ([1]; 298.15 K, x2 = 0.7342): 977.81 ± 0.39 kg/m3
mass density ([1]; 298.15 K, x2 = 0.793): 954.59 ± 0.41 kg/m3
mass density ([1]; 298.15 K, x2 = 0.8967): 915.73 ± 0.43 kg/m3
viscosity ([1]; 313.15 K, x2 = 0.0508): 1.171 ± 0.0073 mPa·s
viscosity ([1]; 313.15 K, x2 = 0.1011): 1.112 ± 0.007 mPa·s
viscosity ([1]; 313.15 K, x2 = 0.2025): 0.9911 ± 0.0065 mPa·s
viscosity ([1]; 313.15 K, x2 = 0.3024): 0.891 ± 0.006 mPa·s
viscosity ([1]; 313.15 K, x2 = 0.404): 0.8127 ± 0.0056 mPa·s
viscosity ([1]; 313.15 K, x2 = 0.5027): 0.757 ± 0.0054 mPa·s
viscosity ([1]; 313.15 K, x2 = 0.6069): 0.7128 ± 0.0052 mPa·s
viscosity ([1]; 313.15 K, x2 = 0.7013): 0.6832 ± 0.0052 mPa·s
viscosity ([1]; 313.15 K, x2 = 0.8016): 0.6642 ± 0.0052 mPa·s
viscosity ([1]; 313.15 K, x2 = 0.9064): 0.6543 ± 0.0053 mPa·s
speed of sound ([1]; 313.15 K, x2 = 0.0995): 813.9 ± 1.1 m/s
speed of sound ([1]; 313.15 K, x2 = 0.2): 845.8 ± 1.2 m/s
speed of sound ([1]; 313.15 K, x2 = 0.3049): 885 ± 1.2 m/s
speed of sound ([1]; 313.15 K, x2 = 0.4111): 927.4 ± 1.2 m/s
speed of sound ([1]; 313.15 K, x2 = 0.504): 967.4 ± 1.3 m/s
speed of sound ([1]; 313.15 K, x2 = 0.6032): 1010.4 ± 1.3 m/s
speed of sound ([1]; 313.15 K, x2 = 0.733): 1070.3 ± 1.4 m/s
speed of sound ([1]; 313.15 K, x2 = 0.8321): 1116.2 ± 1.4 m/s
speed of sound ([1]; 313.15 K, x2 = 0.8988): 1149.4 ± 1.5 m/s
mass density ([1]; 313.15 K, x2 = 0.1028): 1280.8 ± 0.21 kg/m3
mass density ([1]; 313.15 K, x2 = 0.2): 1217.96 ± 0.24 kg/m3
mass density ([1]; 313.15 K, x2 = 0.3049): 1157.77 ± 0.27 kg/m3
mass density ([1]; 313.15 K, x2 = 0.4108): 1102.63 ± 0.3 kg/m3
mass density ([1]; 313.15 K, x2 = 0.504): 1058.19 ± 0.32 kg/m3
mass density ([1]; 313.15 K, x2 = 0.5961): 1017.26 ± 0.35 kg/m3
mass density ([1]; 313.15 K, x2 = 0.6986): 974.97 ± 0.38 kg/m3
mass density ([1]; 313.15 K, x2 = 0.8321): 923.77 ± 0.41 kg/m3
mass density ([1]; 313.15 K, x2 = 0.8986): 899.6 ± 0.42 kg/m3
excess molar enthalpy ([2]; 283.15 K, x2 = 0.065): -0.102 ± 0.00191 kcal/mol
excess molar enthalpy ([2]; 283.15 K, x2 = 0.127): -0.178 ± 0.00239 kcal/mol
excess molar enthalpy ([2]; 283.15 K, x2 = 0.248): -0.283 ± 0.00359 kcal/mol
excess molar enthalpy ([2]; 283.15 K, x2 = 0.36): -0.342 ± 0.0043 kcal/mol
excess molar enthalpy ([2]; 283.15 K, x2 = 0.466): -0.362 ± 0.00454 kcal/mol
excess molar enthalpy ([2]; 283.15 K, x2 = 0.57): -0.35 ± 0.0043 kcal/mol
excess molar enthalpy ([2]; 283.15 K, x2 = 0.664): -0.303 ± 0.00382 kcal/mol
excess molar enthalpy ([2]; 283.15 K, x2 = 0.755): -0.243 ± 0.00311 kcal/mol
excess molar enthalpy ([2]; 283.15 K, x2 = 0.839): -0.168 ± 0.00239 kcal/mol
excess molar enthalpy ([2]; 283.15 K, x2 = 0.921): -0.0829 ± 0.00143 kcal/mol
excess molar enthalpy ([2]; 283.15 K, x2 = 0.962): -0.037 ± 0.0012 kcal/mol
excess molar enthalpy ([2]; 298.15 K, x2 = 0.065): -0.113 ± 0.00215 kcal/mol
excess molar enthalpy ([2]; 298.15 K, x2 = 0.127): -0.204 ± 0.00287 kcal/mol
excess molar enthalpy ([2]; 298.15 K, x2 = 0.248): -0.322 ± 0.00406 kcal/mol
excess molar enthalpy ([2]; 298.15 K, x2 = 0.36): -0.384 ± 0.00478 kcal/mol
excess molar enthalpy ([2]; 298.15 K, x2 = 0.466): -0.404 ± 0.00502 kcal/mol
excess molar enthalpy ([2]; 298.15 K, x2 = 0.57): -0.387 ± 0.00478 kcal/mol
excess molar enthalpy ([2]; 298.15 K, x2 = 0.664): -0.339 ± 0.0043 kcal/mol
excess molar enthalpy ([2]; 298.15 K, x2 = 0.755): -0.268 ± 0.00359 kcal/mol
excess molar enthalpy ([2]; 298.15 K, x2 = 0.839): -0.184 ± 0.00263 kcal/mol
excess molar enthalpy ([2]; 298.15 K, x2 = 0.921): -0.0908 ± 0.00167 kcal/mol
excess molar enthalpy ([2]; 298.15 K, x2 = 0.962): -0.0428 ± 0.00143 kcal/mol
excess molar enthalpy ([2]; 313.15 K, x2 = 0.065): -0.114 ± 0.00215 kcal/mol
excess molar enthalpy ([2]; 313.15 K, x2 = 0.127): -0.215 ± 0.00311 kcal/mol
excess molar enthalpy ([2]; 313.15 K, x2 = 0.248): -0.348 ± 0.00454 kcal/mol
excess molar enthalpy ([2]; 313.15 K, x2 = 0.36): -0.421 ± 0.00526 kcal/mol
excess molar enthalpy ([2]; 313.15 K, x2 = 0.466): -0.444 ± 0.0055 kcal/mol
excess molar enthalpy ([2]; 313.15 K, x2 = 0.57): -0.427 ± 0.00526 kcal/mol
excess molar enthalpy ([2]; 313.15 K, x2 = 0.664): -0.374 ± 0.00478 kcal/mol
excess molar enthalpy ([2]; 313.15 K, x2 = 0.755): -0.297 ± 0.00382 kcal/mol
excess molar enthalpy ([2]; 313.15 K, x2 = 0.839): -0.203 ± 0.00287 kcal/mol
excess molar enthalpy ([2]; 313.15 K, x2 = 0.921): -0.0997 ± 0.00191 kcal/mol
excess molar enthalpy ([2]; 313.15 K, x2 = 0.962): -0.0466 ± 0.00143 kcal/mol

Source: the NIST ThermoML archive (doi:10.1021/je025655p)
